Data reported in patent publication US12077503B2, “Substituted cyclic amides and their use as herbicides” (FMC CORPORATION, priority 2015, dated 2024).

Key:
Assay type in all cases: in vivo
[1] = system: Kochia (Kochia scoparia); experiment: Test A preemergence
Summary of the method: (§1)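 Each rating is a visual injury score from 0 to 100 given about 10 d after treatment, judged against untreated controls kept alongside in the greenhouse. In loam soil–sand blend, seeds got a preemergence directed soil spray, while postemergence plants were 2 to 10 cm tall at spraying.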

[2] = system: barnyardgrass (Echinochloa crus-galli); experiment: Test A preemergence
Summary of the method: as §1

[3] = system: giant foxtail (Setaria faberii); experiment: Test A preemergence
Summary of the method: as §1

[4] = system: pigweed (Amaranthus retroflexus); experiment: Test A preemergence
[5] = system: ragweed (common ragweed, Ambrosia elatior); experiment: Test A preemergence
Summary of the method: as §1

[6] = system: ryegrass, Italian (Italian ryegrass, Lolium multiflorum); experiment: Test A preemergence
Summary of the method: as §1

[7] = system: Galium (catchweed bedstraw, Galium aparine); experiment: Test A postemergence; conditions: postemergence, 0 to 100 scale (0 no effect, 100 complete control)
Summary of the method: as §1

[8] = system: Kochia (Kochia scoparia); experiment: Test A postemergence; conditions: postemergence, 0 to 100 scale (0 no effect, 100 complete control)
Summary of the method: as §1

[9] = system: barnyardgrass (Echinochloa crus-galli); experiment: Test A postemergence; conditions: postemergence, 0 to 100 scale (0 no effect, 100 complete control)
Summary of the method: as §1

[10] = system: blackgrass (Alopecurus myosuroides); experiment: Test A postemergence; conditions: postemergence, 0 to 100 scale (0 no effect, 100 complete control)
Summary of the method: as §1

[11] = system: corn (Zea mays); experiment: Test A postemergence; conditions: postemergence, 0 to 100 scale (0 no effect, 100 complete control)
Summary of the method: as §1

[12] = system: giant foxtail (Setaria faberii); experiment: Test A postemergence; conditions: postemergence, 0 to 100 scale (0 no effect, 100 complete control)
Summary of the method: as §1

[13] = system: pigweed (Amaranthus retroflexus); experiment: Test A postemergence; conditions: postemergence, 0 to 100 scale (0 no effect, 100 complete control)
Summary of the method: as §1

[14] = system: ragweed (common ragweed, Ambrosia elatior); experiment: Test A postemergence; conditions: postemergence, 0 to 100 scale (0 no effect, 100 complete control)
Summary of the method: as §1

[15] = system: ryegrass, Italian (Italian ryegrass, Lolium multiflorum); experiment: Test A postemergence; conditions: postemergence, 0 to 100 scale (0 no effect, 100 complete control)
Summary of the method: as §1

[16] = system: wheat (Triticum aestivum); experiment: Test A postemergence; conditions: postemergence, 0 to 100 scale (0 no effect, 100 complete control)
Summary of the method: as §1

[17] = system: barnyardgrass (Echinochloa crus-galli); experiment: Test B flooded paddy test; conditions: Flood, 0 to 100 scale where 0 is no effect and 100 is complete control, 13 to 15 d
Summary of the method: (§2)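 Percent control, visually estimated after 13–15 d in the greenhouse on a 0–100 basis, compares treated pots with untreated ones; compound was put into paddy water 3 cm above the soil when plants had two leaves.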

[18] = system: ducksalad (Heteranthera limosa); experiment: Test B flooded paddy test; conditions: Flood, 0 to 100 scale where 0 is no effect and 100 is complete control, 13 to 15 d
Summary of the method: as §2

[19] = system: rice (Oryra sativa); experiment: Test B flooded paddy test; conditions: Flood, 0 to 100 scale where 0 is no effect and 100 is complete control, 13 to 15 d
Summary of the method: as §2

[20] = system: sedge, umbrella (small-flower umbrella sedge, Cyperus difformis); experiment: Test B flooded paddy test; conditions: Flood, 0 to 100 scale where 0 is no effect and 100 is complete control, 13 to 15 d
Summary of the method: as §2

[21] = 125 g ai/ha, Preemergence, visual injury after approximately 10 d, 0 to 100 scale where 0 is no effect and 100 is complete control
[22] = 500 g ai/ha, preemergence, 0 to 100 scale, 0 = no effect, 100 = complete control
[23] = 125 g ai/ha, visual rating after approx. 10 d
[24] = 500 g ai/ha, visual injury, approx. 10 d

Row | SMILES | Plant response rating, Kochia [1, 21] | Plant response rating, Kochia [1, 22] | Plant response rating, Barnyardgrass [2, 21] | Plant response rating, Barnyardgrass [2, 22] | Plant response rating, Foxtail, Giant [3, 21] | Plant response rating, Foxtail, Giant [3, 22] | Plant response rating, Pigweed [4, 21] | Plant response rating, Pigweed [4, 22] | Plant response rating, Ragweed [5, 21] | Plant response rating, Ragweed [5, 22] | Plant response rating, Ryegrass, Italian [6, 21] | Plant response rating, Ryegrass, Italian [6, 22] | Plant response rating, Galium [7, 23] | Plant response rating, Galium [7, 24] | Plant response rating, Kochia [8, 23] | Plant response rating, Kochia [8, 24] | Plant response rating, Barnyardgrass [9, 23] | Plant response rating, Barnyardgrass [9, 24] | Plant response rating, Blackgrass [10, 23] | Plant response rating, Blackgrass [10, 24] | also measured
1 | Cc1cc(C2CNC(=O)C2C(=O)Nc2cccc(F)c2F)cs1 (racemic) [Compound 656] | 60 | 50 | 90 | 90 | 90 | 90 | 30 | 40 | 20 | 60 | 30 | 60 | 0 | 60 | 20 | 30 | 90 | 90 | 0 | 30 | Plant response rating, Corn [11, 23]: 0; Plant response rating, Corn [11, 24]: 20; Plant response rating, Foxtail, Giant [12, 23]: 20; Plant response rating, Foxtail, Giant [12, 24]: 60; Plant response rating, Pigweed [13, 23]: 0; Plant response rating, Pigweed [13, 24]: 0; Plant response rating, Ragweed [14, 23]: 0; Plant response rating, Ragweed [14, 24]: 0; Plant response rating, Ryegrass, Italian [15, 23]: 0; Plant response rating, Ryegrass, Italian [15, 24]: 0; Plant response rating, Wheat [16, 23]: 0; Plant response rating, Wheat [16, 24]: 20; Plant response rating, Barnyardgrass ([17]; 250 g ai/ha): 50; Plant response rating, Ducksalad ([18]; 250 g ai/ha): 100; Plant response rating, Rice ([19]; 250 g ai/ha): 0; Plant response rating, Sedge, Umbrella ([20]; 250 g ai/ha): 0
2 | CCc1cc(C2CNC(=O)C2C(=O)Nc2ccccc2F)cs1 (racemic) [Compound 657] | 20 | 40 | 90 | 90 | 90 | 90 | 20 | 30 | 20 | 20 | 20 | 30 | 0 | 30 | 0 | 0 | 90 | 90 | 0 | 30 | Plant response rating, Corn [11, 23]: 0; Plant response rating, Corn [11, 24]: 0; Plant response rating, Foxtail, Giant [12, 23]: 0; Plant response rating, Foxtail, Giant [12, 24]: 60; Plant response rating, Pigweed [13, 23]: 0; Plant response rating, Pigweed [13, 24]: 0; Plant response rating, Ragweed [14, 23]: 0; Plant response rating, Ragweed [14, 24]: 0; Plant response rating, Ryegrass, Italian [15, 23]: 0; Plant response rating, Ryegrass, Italian [15, 24]: 0; Plant response rating, Wheat [16, 23]: 0; Plant response rating, Wheat [16, 24]: 0; Plant response rating, Barnyardgrass ([17]; 250 g ai/ha): 40; Plant response rating, Ducksalad ([18]; 250 g ai/ha): 100; Plant response rating, Rice ([19]; 250 g ai/ha): 0; Plant response rating, Sedge, Umbrella ([20]; 250 g ai/ha): 0
3 | CCc1cc(C2CNC(=O)C2C(=O)Nc2cccc(F)c2F)cs1 (racemic) [Compound 658] | 0 | 30 | 90 | 90 | 90 | 90 | 0 | 50 | 50 | 70 | 0 | 70 | 60 | 60 | 0 | 30 | 70 | 90 | 40 | 70 | Plant response rating, Corn [11, 23]: 0; Plant response rating, Corn [11, 24]: 30; Plant response rating, Foxtail, Giant [12, 23]: 0; Plant response rating, Foxtail, Giant [12, 24]: 60; Plant response rating, Pigweed [13, 23]: 0; Plant response rating, Pigweed [13, 24]: 0; Plant response rating, Ragweed [14, 23]: 0; Plant response rating, Ragweed [14, 24]: 40; Plant response rating, Ryegrass, Italian [15, 23]: 30; Plant response rating, Ryegrass, Italian [15, 24]: 60; Plant response rating, Wheat [16, 23]: 0; Plant response rating, Wheat [16, 24]: 30; Plant response rating, Barnyardgrass ([17]; 250 g ai/ha): 50; Plant response rating, Ducksalad ([18]; 250 g ai/ha): 100; Plant response rating, Rice ([19]; 250 g ai/ha): 0; Plant response rating, Sedge, Umbrella ([20]; 250 g ai/ha): 0
4 | O=C1NCC(c2cccc(C(F)(F)F)c2)C1C(=O)Nc1ccc(F)cc1Cl (racemic) [Compound 676] | 0 | 0 | 70 | 90 | 80 | 90 | 0 | 0 | 0 | 0 | 0 | 20 | 0 | 40 | 0 | 0 | 50 | 80 | 20 | 40 | Plant response rating, Corn [11, 23]: 0; Plant response rating, Corn [11, 24]: 50; Plant response rating, Foxtail, Giant [12, 23]: 20; Plant response rating, Foxtail, Giant [12, 24]: 80; Plant response rating, Pigweed [13, 23]: 0; Plant response rating, Pigweed [13, 24]: 0; Plant response rating, Ragweed [14, 23]: 0; Plant response rating, Ragweed [14, 24]: 0; Plant response rating, Ryegrass, Italian [15, 23]: 0; Plant response rating, Ryegrass, Italian [15, 24]: 20; Plant response rating, Wheat [16, 23]: 0; Plant response rating, Wheat [16, 24]: 20; Plant response rating, Barnyardgrass ([17]; 500 g ai/ha): 80; Plant response rating, Ducksalad ([18]; 500 g ai/ha): 85; Plant response rating, Rice ([19]; 500 g ai/ha): 15; Plant response rating, Sedge, Umbrella ([20]; 500 g ai/ha): 0
